Laboratory results from the NIST ThermoML archive (doi:10.1021/acs.jced.8b00692).
Several values for one entry are separate records, joined by “and”; a condition that tells them apart may be missing. Equal values may be shown once.

Columns and labels:
[1] = xn = mol fraction of the nth substance listed; conditions: 102 kPa, Liquid, x2 = 0; for viscosity: Concentric cylinders viscometry; for mass density: Vibrating tube method; for speed of sound: Frequency=3 MHz, Single path-length method
[2] = Liquid; for viscosity: Concentric cylinders viscometry; for speed of sound: Single path-length method; for mass density: Vibrating tube method

CCCCCCCCCCCCCCCC [hexadecane] + CCCCCCCCCC1CCCCC1
[1]
Conditions | mass density [kg/m3] | viscosity [mPa·s]
293.15 K | 773.37 | 3.47
303.15 K | 766.43 | 2.76
313.15 K | 759.51 | 2.24
323.15 K | 752.61 | 1.86
333.15 K | 745.69 | 1.56
343.15 K | 738.8 | 1.35
353.15 K | 731.9 | 1.15
363.15 K | 724.9 | 1.02
373.15 K | 717.9 | 0.885

CCCCCCCCCCCCCCCC [hexadecane] + CCCCCCCC1CCCCC1
[1]
Conditions | mass density [kg/m3] | viscosity [mPa·s]
293.15 K | 773.37 | 3.47
303.15 K | 766.43 | 2.76
313.15 K | 759.51 | 2.24
323.15 K | 752.61 | 1.86
333.15 K | 745.69 | 1.56
343.15 K | 738.8 | 1.35
353.15 K | 731.9 | 1.15
363.15 K | 724.9 | 1.02
373.15 K | 717.9 | 0.885

CCCCCCCCCC1CCCCC1 [nonylcyclohexane]
[2], 102 kPa
Conditions | mass density [kg/m3] | viscosity [mPa·s]
293.15 K | 816.41 | 4.34
303.15 K | 809.57 | 3.39
313.15 K | 802.74 | 2.72
323.15 K | 795.8 | 2.22
333.15 K | 789.05 | 1.85
343.15 K | 782.2 | 1.57
353.15 K | 775.4 | 1.35
363.15 K | 768.5 | 1.2
373.15 K | 761.6 | 1.03

[2], 102 kPa, Frequency=3 MHz
Conditions | speed of sound [m/s]
293.15 K | 1397.2
303.15 K | 1359.6
313.15 K | 1322.9
323.15 K | 1287.1
333.15 K | 1252.2

CCCCCCCCCCCCCCCC [hexadecane] + CCCCCCCCC1CCCCC1
[1]
Conditions | mass density [kg/m3] | viscosity [mPa·s]
293.15 K | 773.37 | 3.47
303.15 K | 766.43 | 2.76
313.15 K | 759.51 | 2.24
323.15 K | 752.61 | 1.86
333.15 K | 745.69 | 1.56
343.15 K | 738.8 | 1.35
353.15 K | 731.9 | 1.15
363.15 K | 724.9 | 1.02
373.15 K | 717.9 | 0.885

CCCC1CCCCC1 [1-cyclohexylpropane]
[2], 102 kPa
Conditions | mass density [kg/m3] | viscosity [mPa·s]
293.15 K | 793.54 | 0.996
303.15 K | 785.73 | 0.86
313.15 K | 777.9 | 0.75
323.15 K | 770.04 | 0.663
333.15 K | 762.12 | 0.584
343.15 K | 754.2 | 0.544
353.15 K | 746.1 | 0.477
363.15 K | 738 | 0.452

[2], 102 kPa, Frequency=3 MHz
Conditions | speed of sound [m/s]
293.15 K | 1307.8
303.15 K | 1266.2
313.15 K | 1225.6
323.15 K | 1185.9
333.15 K | 1147.3

CCCCCCC1CCCCC1 [hexylcyclohexane]
[2], 102 kPa
Conditions | mass density [kg/m3] | viscosity [mPa·s]
293.15 K | 807.71 | 2.2
303.15 K | 800.56 | 1.81
313.15 K | 793.4 | 1.51
323.15 K | 786.22 | 1.29
333.15 K | 779.02 | 1.09
343.15 K | 771.8 | 0.964
353.15 K | 764.6 | 0.847
363.15 K | 757.3 | 0.758

[2], 102 kPa, Frequency=3 MHz
Conditions | speed of sound [m/s]
293.15 K | 1361
303.15 K | 1322.1
313.15 K | 1284.2
323.15 K | 1247.1
333.15 K | 1211

CCCCCCCCCCCCCCCC [hexadecane] + CCCCCCC1CCCCC1
[1]
Conditions | mass density [kg/m3] | viscosity [mPa·s]
293.15 K | 773.37 | 3.47
303.15 K | 766.43 | 2.76
313.15 K | 759.51 | 2.24
323.15 K | 752.61 | 1.86
333.15 K | 745.69 | 1.56
343.15 K | 738.8 | 1.35
353.15 K | 731.9 | 1.15
363.15 K | 724.9 | 1.02

CCCCCCCCCCCCCCCC [hexadecane] + CCCCCCCCCCC1CCCCC1
[1]
Conditions | mass density [kg/m3] | viscosity [mPa·s]
293.15 K | 773.37 | 3.47
303.15 K | 766.43 | 2.76
313.15 K | 759.51 | 2.24
323.15 K | 752.61 | 1.86
333.15 K | 745.69 | 1.56
343.15 K | 738.8 | 1.35
353.15 K | 731.9 | 1.15
363.15 K | 724.9 | 1.02
373.15 K | 717.9 | 0.885

CCCCCCCC1CCCCC1 [heptylcyclohexane]
[2], 102 kPa
Conditions | mass density [kg/m3] | viscosity [mPa·s]
293.15 K | 810.99 | 2.8
303.15 K | 803.96 | 2.26
313.15 K | 796.93 | 1.86
323.15 K | 789.89 | 1.56
333.15 K | 782.83 | 1.33
343.15 K | 775.8 | 1.15
353.15 K | 768.7 | 0.993
363.15 K | 761.6 | 0.892
373.15 K | 754.4 | 0.776

[2], 102 kPa, Frequency=3 MHz
Conditions | speed of sound [m/s]
293.15 K | 1374.4
303.15 K | 1336.1
313.15 K | 1298.7
323.15 K | 1262.1
333.15 K | 1226.5

CCCCCCCCC1CCCCC1 [octylcyclohexane]
[2], 102 kPa
Conditions | mass density [kg/m3] | viscosity [mPa·s]
293.15 K | 814.14 | 3.52
303.15 K | 807.22 | 2.79
313.15 K | 800.29 | 2.27
323.15 K | 793.36 | 1.88
333.15 K | 786.42 | 1.58
343.15 K | 779.5 | 1.36
353.15 K | 772.5 | 1.16
363.15 K | 765.5 | 1.04
373.15 K | 758.5 | 0.899

[2], 102 kPa, Frequency=3 MHz
Conditions | speed of sound [m/s]
293.15 K | 1387
303.15 K | 1349.1
313.15 K | 1312.1
323.15 K | 1275.9
333.15 K | 1240.5

CCCCCCCCCCCCC1CCCCC1 [dodecylcyclohexane]
[2], 102 kPa
Conditions | mass density [kg/m3] | viscosity [mPa·s]
293.15 K | 822.31 | 7.76
303.15 K | 815.65 | 5.81
313.15 K | 809.01 | 4.48
323.15 K | 802.37 | 3.55
333.15 K | 795.74 | 2.88
343.15 K | 789.1 | 2.39
353.15 K | 782.5 | 2.01
363.15 K | 775.9 | 1.72
373.15 K | 769.2 | 1.48

[2], 102 kPa, Frequency=3 MHz
Conditions | speed of sound [m/s]
293.15 K | 1423.3
303.15 K | 1386.3
313.15 K | 1350.4
323.15 K | 1315.2
333.15 K | 1281.1

CCCCCCCCCCCCCCCC [hexadecane]
[2]
Conditions | mass density, 102 kPa | speed of sound, 101.33 kPa [m/s] | viscosity, 102 kPa [mPa·s]
293.15 K | 773.37 kg/m3 | 1357.4 | 3.47
303.15 K | 766.43 kg/m3 | 1319.6 | 2.76
313.15 K | 759.51 kg/m3 | 1282.9 | 2.24
323.15 K | 752.61 kg/m3 | 1247 | 1.86
333.15 K | 745.69 kg/m3 | 1212.1 | 1.56
343.15 K | 738.78 kg/m3 and 738.8 kg/m3 | – | 1.35
353.15 K | 731.9 kg/m3 | – | 1.15
363.15 K | 724.9 kg/m3 | – | 1.02
373.15 K | 717.9 kg/m3 | – | 0.885

CCCCCCCCCCCCCCCC [hexadecane] + CCCCCCCCCCCCC1CCCCC1
[1]
Conditions | mass density [kg/m3] | viscosity [mPa·s]
293.15 K | 773.37 | 3.47
303.15 K | 766.43 | 2.76
313.15 K | 759.51 | 2.24
323.15 K | 752.61 | 1.86
333.15 K | 745.69 | 1.56
343.15 K | 738.8 | 1.35
353.15 K | 731.9 | 1.15
363.15 K | 724.9 | 1.02
373.15 K | 717.9 | 0.885

CCCCCCCCCCC1CCCCC1 [decylcyclohexane]
[2], 102 kPa
Conditions | mass density [kg/m3] | viscosity [mPa·s]
293.15 K | 818.55 | 5.32
303.15 K | 811.78 | 4.09
313.15 K | 805.02 | 3.23
323.15 K | 798.27 | 2.62
333.15 K | 791.5 | 2.16
343.15 K | 784.8 | 1.82
353.15 K | 778 | 1.55
363.15 K | 771.2 | 1.34
373.15 K | 764.4 | 1.17

[2], 102 kPa, Frequency=3 MHz
Conditions | speed of sound [m/s]
293.15 K | 1406.7
303.15 K | 1369.4
313.15 K | 1333
323.15 K | 1297.5
333.15 K | 1262.9

CCCCCCCCCCCCCCCC [hexadecane] + CCCC1CCCCC1
[1]
Conditions | mass density [kg/m3] | speed of sound [m/s] | viscosity [mPa·s]
293.15 K | 773.37 | 1357.4 | 3.47
303.15 K | 766.43 | 1319.6 | 2.76
313.15 K | 759.51 | 1282.9 | 2.24
323.15 K | 752.61 | 1247 | 1.86
333.15 K | 745.69 | 1212.1 | 1.56
343.15 K | 738.78 | – | 1.35
353.15 K | 731.9 | – | 1.15
363.15 K | 724.9 | – | 1.02

CCCCCC1CCCCC1 [pentylcyclohexane]
[2], 102 kPa
Conditions | mass density [kg/m3] | viscosity [mPa·s]
293.15 K | 804.11 | 1.7
303.15 K | 796.8 | 1.42
313.15 K | 789.47 | 1.21
323.15 K | 782.12 | 1.04
333.15 K | 774.74 | 0.895
343.15 K | 767.3 | 0.799
353.15 K | 759.9 | 0.709
363.15 K | 752.4 | 0.637

[2], 102 kPa, Frequency=3 MHz
Conditions | speed of sound [m/s]
293.15 K | 1345.9
303.15 K | 1306.4
313.15 K | 1267.8
323.15 K | 1230.1
333.15 K | 1193.4
